This passage reports Ki results from US8765779B2, “Tricyclic derivatives and their pharmaceutical use and compositions” (Cephalon, Inc., priority 2009, dated 2014).

This assay addresses T1, human 5-HT6 receptor (Homo sapiens, UniProt P50406).
T1 construct: host or cells: CHO-K1 cells, stably transfected; membranes prepared in house
Nature of the assay: Human 5-HT6 Receptor Binding Assay ([3H]LSD displacement, scintillation beads). The conditions noted are these: membranes of CHO-K1 cells with recombinant human 5-HT6, 4 nM [3H]LSD; Table 1, class symbols; read-out: h5-HT6 (Ki).

Structures are written as SMILES. A value given as a limit tells only on which side of the number the result lay.

One may read the Ki as a dissociation constant, usually derived from enzyme kinetics or from competition with a known ligand.

T1 sequence (P50406 whole entry): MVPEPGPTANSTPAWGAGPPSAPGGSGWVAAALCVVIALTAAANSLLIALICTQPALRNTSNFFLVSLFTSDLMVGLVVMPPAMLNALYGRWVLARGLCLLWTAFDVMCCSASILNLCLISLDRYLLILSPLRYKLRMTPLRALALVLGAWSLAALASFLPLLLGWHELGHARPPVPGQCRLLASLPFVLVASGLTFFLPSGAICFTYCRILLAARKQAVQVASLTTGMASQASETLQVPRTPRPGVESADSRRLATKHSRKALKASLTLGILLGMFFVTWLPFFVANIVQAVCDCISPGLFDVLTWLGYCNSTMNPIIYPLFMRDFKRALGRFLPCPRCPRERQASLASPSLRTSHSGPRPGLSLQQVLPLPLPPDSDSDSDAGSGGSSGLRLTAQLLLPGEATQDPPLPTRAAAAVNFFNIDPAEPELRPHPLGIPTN

In the case of `CC(C)Oc1cccc(S(=O)(=O)c2ccc3c(c2)OC2CNCCC32C)c1` (single isomer, unassigned) [Example 21, 4a-methyl-7-{[3-(propan-2-yloxy)phenyl]sulfonyl}-1,2,3,4,4a,9a-hexahydro[1]benzofuro[2,3-c]pyridine], the Ki was less than 500 nM.

Consider `O=S(=O)(c1cncc(C(F)(F)F)c1)c1ccc2c(c1)OC1CNCCC21` (centres unmarked) [Example 464], for which the Ki is less than 500 nM.

Turning to `O=S(=O)(CC1CCCCC1)Oc1ccc2c(c1)OC1CNCCC21` (centres unmarked) [Example 690], the Ki is more than 1000 nM.

Consider `CC12CCNCC1Oc1cc(S(=O)(=O)c3cccc4c3OCCO4)ccc12` (centres unmarked) [Example 468], for which the Ki is less than 500 nM.

As for `O=S(=O)(Oc1ccc2c(c1)C1CCNCC1O2)c1ccc(F)cc1` (centres unmarked) [Example 702], the Ki is more than 1000 nM.

In the case of `COc1ccc(S(=O)(=O)Oc2ccc3c(c2)C2CCNCC2O3)cc1OC` (centres unmarked) [Example 732], the Ki was in the range of 500 to 1000 nM.

As for `O=S(=O)(Oc1ccc2c(c1)C1CCNCC1O2)c1cc2ccccc2s1` (centres unmarked) [Example 724], the Ki was less than 500 nM.

Take `COC(=O)c1cccc(S(=O)(=O)c2ccc3c(c2)OC2CNCCC32)c1` (centres unmarked) [Example 138]: the Ki is more than 1000 nM.

Turning to `O=S(=O)(c1cccc(F)c1)c1ccc2c3c(oc2c1)CNCC3` [Example 341], the Ki is less than 500 nM.

For `O=S(=O)(Nc1ccccc1Cl)c1ccc2c(c1)C1CCNCC1O2` (centres unmarked) [Example 840], the Ki is more than 1000 nM.

Regarding `[O-][S+](c1ccc2oc3c(c2c1)CCNC3)c1cccnc1Cl` (centres unmarked) [Example 445], the Ki is more than 1000 nM.

For the molecule `O=S(=O)(c1ccc2c(c1)C1CCNCC1O2)N1CCC2(CC1)OCc1ccccc12` (centres unmarked) [Example 862], the Ki was more than 1000 nM.

Turning to `CCCCC1NCCc2c1oc1cc(S(=O)(=O)c3cccc(Cl)c3)ccc21` (centres unmarked) [Example 499], the Ki is less than 500 nM.

With `O=S(=O)(c1cccc(OCc2ccncc2)c1)c1ccc2c(c1)OC1CNCCC21` (centres unmarked) [Example 561], the Ki was less than 500 nM.

On to `O=S(=O)(CCc1ccccc1)Oc1ccc2c(c1)OC1CNCCC21` (centres unmarked) [Example 691], for which the Ki is more than 1000 nM.

As for `COc1cccc(S(=O)(=O)c2ccc3c4c(oc3c2)CNCC4)c1` [Example 199], the Ki is less than 500 nM.

For `CC12CCNCC1Oc1cc(S(=O)(=O)c3cncc(C(F)(F)F)c3)ccc12` (centres unmarked) [Example 431], the Ki is more than 1000 nM.

Consider `O=S(=O)(c1ccc2c(c1)OC1CNCCC21)c1ccc2ccccc2c1` (centres unmarked) [Example 122], for which the Ki is less than 500 nM.

With `O=S(=O)(c1ccc2oc3c(c2c1)CCNC3)c1ccccn1` [Example 353], the Ki was less than 500 nM.

`O=S(=O)(c1cccc(Cl)c1)c1ccc2c3c(oc2c1)C(C1CCOC1)NCC3` (centres unmarked) [Example 521]: the Ki is less than 500 nM.

Regarding `CC(C)c1ccc(S(=O)(=O)c2ccc3c(c2)OC2CNCCC32)cc1` (centres unmarked) [Example 125], the Ki is less than 500 nM.

Consider `CC(C)COc1cc(F)cc(S(=O)(=O)c2ccc3c(c2)OC2CNCCC32)c1` (centres unmarked) [Example 402], for which the Ki was less than 500 nM.

As to `O=S(=O)(c1ccc2c3c(oc2c1)CNCC3)c1cccc(Cl)c1Cl` [Example 196, 7-[(2,3-dichlorophenyl)sulfonyl]-1,2,3,4-tetrahydro[1]benzofuro[2,3-c]pyridine], the Ki is less than 500 nM.

`O=S(=O)(c1ccc(C(F)(F)F)cc1)c1ccc2c(c1)OC1CNCCC21` (centres unmarked) [Example 151]: the Ki is 500 to 1000 nM.

Take `O=S(=O)(NC1Cc2ccccc2C1)c1ccc2c(c1)C1CCNCC1O2` (centres unmarked) [Example 857]: the Ki is more than 1000 nM.

Regarding `CC1(C)NCCc2c1oc1cc(S(=O)(=O)c3ccc(F)c(Cl)c3)ccc21` [Example 18, 7-[(3-chloro-4-fluorophenyl)sulfonyl]-1,1-dimethyl-1,2,3,4-tetrahydro[1]benzofuro[2,3-c]pyridine], the Ki was less than 500 nM.

For the molecule `[O-][S+](c1ccc2oc3c(c2c1)CCNC3)c1cccc(F)c1F` (centres unmarked) [Example 442], the Ki is more than 1000 nM.

On to `COc1cccc(S(=O)(=O)c2ccc3c(c2)OC2CNCCC32)c1F` (centres unmarked) [Example 404], for which the Ki was less than 500 nM.

In the case of `O=S(=O)(c1ccc2c3c(oc2c1)CNCC3)c1cccnc1F` [Example 434], the Ki is less than 500 nM.
